Measurements as given in patent US20120190564A1, “IDENTIFICATION OF PROTEIN BINDING SITES” (priority 2000, published 2012).
Ends that are not written are not given here. * marks the point of attachment. code + = amino-terminal bromo-group; nBu = CCCC*

test system: anti-hTNF mAb 210; experiment: Loop-loop 15-mer Matrix-scan of hTNF loop-peptides with mAb 210; type: binding; settings: mAb 210 10 ug/ml
Excerpt: FIG. 11: Partial listing of peptides synthesized for loop-loop 15-mer Matrix-scan (1. +AVRSSSRTPSDKPVZ (SEQ ID NO: 3); 2. +VRSSSRTPSDKPVAZ (SEQ ID NO: 4); 3. +RSSSRTPSDKPVAHZ (SEQ ID NO: 5); 4. +SSSRTPSDKPVAHVZ (SEQ ID NO: 6); 5. +SSRTPSDKPVAHVVZ (SEQ ID NO: 7); 145. +FAESGQVYFGIIALZ (SEQ ID NO: 8)). All overlapping 15-mer loop-peptides covering the linear sequence of human tumor necrosis factor (hTNF) were synthesized, i.e., 145 hTNF loop-peptides in total. Z is a Cys-butyl. The amino terminus of all peptides contain a bromo-group (+).
FIG. 12: Configuration of the loop-loop 15-mer Matrix-scan. Schematic representation of matrix-scan with two loop segments. On the polymer surface, a mixture of cys (mmt) and cys (trt) are coupled. After 1% TFA, the cys (mmt) is deprotected. Then, in each square, one peptide is coupled via its N-terminal Bromo-group (+). Thus, peptide-1 in square-1, peptide-2 in square-2, etc., until peptide-145 in square-145. Then, the cys(trt) is deprotected with 95% TFA. Then, in each square, 145 different peptides are spotted simultaneously. Thus, peptide-1 to 145 in square-1, peptide 1-145 in square-2, etc., to peptide-1 to peptide-145 in square-145. Some extra squares were used for controls (linear epitopes).
FIG. 13: Result of the loop-loop 15-mer Matrix-scan with anti-hTNF mAb 210 (10 ug/ml). The result obtained with all 145 squares is plotted. […] On top of these and other squares spots are labeled as well (spots represent first peptide coupled next to second loop peptide). Identified squares and spots: Sq-65: +FKGQGCPSTHVLLTZ (SEQ ID NO: 9); Sq-66: +KGQGCPSTHVLLTHZ (SEQ ID NO: 10); Sq-67: +GQGCPSTHVLLTHTZ (SEQ ID NO: 11); Sq-87: +SYQTKVNLLSAIKSZ (SEQ ID NO: 12); Sq-88: +YQTKVNLLSAIKSPZ (SEQ ID NO: 13); Sq-94: +LLSAIKSPCQRETPZ (SEQ ID NO: 14); Sq-95: +LSAIKSPCQRETPEZ (SEQ ID NO: 15); Sq-127: +LEKGDRLSAEINRPZ (SEQ ID NO: 16); Sq-128: +EKGDRLSAEINRPDZ (SEQ ID NO: 17); Peptide-65: +FKGQGCPSTHVLLTZ (SEQ ID NO: 18); Peptide-70: +CPSTHVLLTHTISRZ (SEQ ID NO: 19); Peptide-72: +STHVLLTHTISRIAZ (SEQ ID NO: 20); Peptide-77: +LTHTISRIAVSYQTZ (SEQ ID NO: 21); Peptide-94: +LLSAIKSPCQRETPZ (SEQ ID NO: 22); Peptide-95: +LSAIKSPCQRETPEZ (SEQ ID NO: 23); Peptide-99: +KSPCQRETPEGAEAZ (SEQ ID NO: 24); Peptide-126: +QLEKGDRLSAEINRZ (SEQ ID NO: 25); Peptide-129: +KGDRLSAEINRPDYZ (SEQ ID NO: 26). The y-axis is in arbitrary units.
FIG. 14: Result of the loop-loop 15-mer Matrix-scan with mAb 210 (10 ug/m) with details of squares 65 and 127. Combination of loop-peptide 65 with loop-peptides 94, 95, combinations of loop-peptide 65 with 126-127, combinations of loop-peptide 127 with loop-peptides 65-77 and combinations of loop-peptide 127 with loop-peptides 94-96 are labeled. The y-axis is in arbitrary units.
The monoclonal antibody mAb-210 raised against hTNF was tested on linear and loop peptides (mAb-210 was bought from R&D Systems, MAB210, clone 1825.12, through ITK Diagnostics Uithoorn, The Netherlands). Firstly, it was tested in Pepscan on all overlapping linear 12-mers covering hTNF. […] Secondly, it was tested in Pepscan matrix-scan on double 15-mer loop-loop peptides (as described in FIGS. 3 and 4 and explained through FIGS. 11-12). Two loop-regions were labeled: peptide sequence GQGCPSTHVLLT (SEQ ID NO: 65) (squares 65 to 67) and SAIKSPCQRE (SEQ ID NO: 28) (squares 92 to 96) (FIGS. 13, 14). In addition in various squares loop peptide spots were identified corresponding to sequence GQGCPSTHVLLT (SEQ ID NO: 65) (spots 65-67); SAIKSPCQRE (SEQ ID NO: 28) (spots 92-96) and KGDRLSAEINR (SEQ ID NO: 29) (spots 126-129) (FIG. 14). These three regions, illustrated in FIG. 15 on the three-dimensional model of hTNF, are located on one side of the hTNF molecule and form one large discontinuous epitope region.

Row | Substance | labeling of spots (first peptide coupled next to second loop peptide) | labeling of squares (firstly coupled loop-peptides)
1 | GQGCPSTHVLLTHTIS (Human) | identified | –
2 | +LTHTISRIAVSYQTZ ({code +}-LTHTISRIAVSYQTX; not fully specified (residue 15); printed as +LTHTISRIAVSYQTZ; also: N- and C-terminal linker/cyclisation residues) [Peptide-77, 15-mer hTNF loop-peptide] | Identified | –
3 | +KGDRLSAEINRPDYZ ({code +}-KGDRLSAEINRPDYC(nBu)) [Peptide-129, 15-mer hTNF loop-peptide] | Identified | –
4 | +STHVLLTHTISRIAZ ({code +}-STHVLLTHTISRIAC(nBu)) [Peptide-72, 15-mer hTNF loop-peptide] | Identified | –
5 | +CPSTHVLLTHTISRZ ({code +}-CPSTHVLLTHTISRC(nBu)) [Peptide-70, 15-mer hTNF loop-peptide] | Identified | –
6 | +SYQTKVNLLSAIKSZ ({code +}-SYQTKVNLLSAIKSX; not fully specified (residue 15); printed as +SYQTKVNLLSAIKSZ; also: N- and C-terminal linker/cyclisation residues) [Sq-87, 15-mer hTNF loop-peptide] | – | Identified
7 | +KSPCQRETPEGAEAZ ({code +}-KSPCQRETPEGAEAX; not fully specified (residue 15); printed as +KSPCQRETPEGAEAZ; also: N- and C-terminal linker/cyclisation residues) [Peptide-99, 15-mer hTNF loop-peptide] | Identified | –
8 | GQGCPSTHVLLT (Human) | identified | labeled
9 | +LLSAIKSPCQRETPZ ({code +}-LLSAIKSPCQRETPC(nBu)) [Peptide-94, 15-mer hTNF loop-peptide] | Identified | Identified
10 | +EKGDRLSAEINRPDZ ({code +}-EKGDRLSAEINRPDX; not fully specified (residue 15); printed as +EKGDRLSAEINRPDZ; also: N- and C-terminal linker/cyclisation residues) [Sq-128, 15-mer hTNF loop-peptide] | – | Identified
11 | +KGQGCPSTHVLLTHZ ({code +}-KGQGCPSTHVLLTHX; not fully specified (residue 15); printed as +KGQGCPSTHVLLTHZ; also: N- and C-terminal linker/cyclisation residues) [Sq-66, 15-mer hTNF loop-peptide] | – | clearly labeled
12 | KGDRLSAEINR (Human) | identified | –
13 | +LEKGDRLSAEINRPZ ({code +}-LEKGDRLSAEINRPX; not fully specified (residue 15); printed as +LEKGDRLSAEINRPZ; also: N- and C-terminal linker/cyclisation residues) [Sq-127, 15-mer hTNF loop-peptide] | – | Identified
14 | +YQTKVNLLSAIKSPZ ({code +}-YQTKVNLLSAIKSPX; not fully specified (residue 15); printed as +YQTKVNLLSAIKSPZ; also: N- and C-terminal linker/cyclisation residues) [Sq-88, 15-mer hTNF loop-peptide] | – | Identified
15 | +QLEKGDRLSAEINRZ ({code +}-QLEKGDRLSAEINRC(nBu)) [Peptide-126, 15-mer hTNF loop-peptide] | Identified | –
16 | +FKGQGCPSTHVLLTZ ({code +}-FKGQGCPSTHVLLTC(nBu)) [Peptide-65, 15-mer hTNF loop-peptide] | Identified | Identified
17 | +LSAIKSPCQRETPEZ ({code +}-LSAIKSPCQRETPEC(nBu)) [Peptide-95, 15-mer hTNF loop-peptide] | Identified | Identified
18 | SAIKSPCQRE (Human) | identified | labeled
19 | +GQGCPSTHVLLTHTZ ({code +}-GQGCPSTHVLLTHTX; not fully specified (residue 15); printed as +GQGCPSTHVLLTHTZ; also: N- and C-terminal linker/cyclisation residues) [Sq-67, 15-mer hTNF loop-peptide] | – | clearly labeled
